Laboratory results reported in ChEMBL document CHEMBL1800013, “Small molecule inhibitors of SHP2 tyrosine phosphatase discovered by virtual screening” (Bioorg Med Chem Lett, 2011).
The source made the active and inactive calls. The calls are words filed in the database; no cut-off is given here.

What was measured:
[1] = biological target: T1, Low molecular weight phosphotyrosine protein phosphatase (Homo sapiens, UniProt P24666); test: Inhibition of LMW-PTP
T1 sequence (P24666 whole entry): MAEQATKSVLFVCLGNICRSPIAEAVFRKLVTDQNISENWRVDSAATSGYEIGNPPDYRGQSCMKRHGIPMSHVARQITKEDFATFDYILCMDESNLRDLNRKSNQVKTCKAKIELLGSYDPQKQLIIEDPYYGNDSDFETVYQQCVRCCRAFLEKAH

[2] = biological target: T2, Dual specificity protein phosphatase 22 (Homo sapiens, UniProt Q9NRW4); test: Inhibition of VHX
T2 sequence (Q9NRW4 whole entry): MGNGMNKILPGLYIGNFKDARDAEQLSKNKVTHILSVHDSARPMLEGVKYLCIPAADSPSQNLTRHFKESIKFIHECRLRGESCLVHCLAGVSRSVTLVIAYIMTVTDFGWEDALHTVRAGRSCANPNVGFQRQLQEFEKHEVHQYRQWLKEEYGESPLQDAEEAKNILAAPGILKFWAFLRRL

[3] = biological target: T3, Tyrosine-protein phosphatase non-receptor type 11 (Homo sapiens) (UniProt Q06124); test: Inhibition of SHP2 catalytic domain assessed as inhibition of pNPP to p-nitrophenol conversion at 50 uM after 5 mins by spectrophotometry
T3 sequence (whole entry): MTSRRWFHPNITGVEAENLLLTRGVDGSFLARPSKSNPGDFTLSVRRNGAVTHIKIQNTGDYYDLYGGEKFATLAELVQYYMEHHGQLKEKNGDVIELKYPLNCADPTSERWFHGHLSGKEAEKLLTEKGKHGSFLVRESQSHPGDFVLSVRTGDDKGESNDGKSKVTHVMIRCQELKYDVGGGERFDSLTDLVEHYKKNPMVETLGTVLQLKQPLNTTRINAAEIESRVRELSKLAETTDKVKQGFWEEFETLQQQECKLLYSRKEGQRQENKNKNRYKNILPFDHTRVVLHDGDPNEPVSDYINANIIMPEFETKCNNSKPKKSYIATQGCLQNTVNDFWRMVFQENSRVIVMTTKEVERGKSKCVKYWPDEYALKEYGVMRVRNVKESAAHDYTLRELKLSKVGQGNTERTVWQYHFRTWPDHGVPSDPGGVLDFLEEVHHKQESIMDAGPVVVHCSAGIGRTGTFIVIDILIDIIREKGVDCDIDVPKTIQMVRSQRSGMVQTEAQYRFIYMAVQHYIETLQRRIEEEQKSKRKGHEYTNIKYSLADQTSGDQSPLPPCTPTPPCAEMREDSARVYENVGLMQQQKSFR

[4] = biological target: Dual specificity protein phosphatase 3 (Homo sapiens) (UniProt P51452); test: Inhibition of VHR at 100 uM
Chain of Dual specificity protein phosphatase 3 (Homo sapiens) (P51452 whole entry, looked up): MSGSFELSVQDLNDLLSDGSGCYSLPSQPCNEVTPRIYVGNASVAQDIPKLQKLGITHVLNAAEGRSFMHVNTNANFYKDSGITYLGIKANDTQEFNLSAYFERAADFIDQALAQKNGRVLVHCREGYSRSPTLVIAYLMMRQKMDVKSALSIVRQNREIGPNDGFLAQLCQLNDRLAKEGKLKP

[5] = Inhibition of Cdc14 at 100 uM
[6] = biological target: Tyrosine-protein phosphatase non-receptor type 6 (Homo sapiens, UniProt P29350); test: Inhibition of SHP1
Chain of Tyrosine-protein phosphatase non-receptor type 6 (P29350 whole entry): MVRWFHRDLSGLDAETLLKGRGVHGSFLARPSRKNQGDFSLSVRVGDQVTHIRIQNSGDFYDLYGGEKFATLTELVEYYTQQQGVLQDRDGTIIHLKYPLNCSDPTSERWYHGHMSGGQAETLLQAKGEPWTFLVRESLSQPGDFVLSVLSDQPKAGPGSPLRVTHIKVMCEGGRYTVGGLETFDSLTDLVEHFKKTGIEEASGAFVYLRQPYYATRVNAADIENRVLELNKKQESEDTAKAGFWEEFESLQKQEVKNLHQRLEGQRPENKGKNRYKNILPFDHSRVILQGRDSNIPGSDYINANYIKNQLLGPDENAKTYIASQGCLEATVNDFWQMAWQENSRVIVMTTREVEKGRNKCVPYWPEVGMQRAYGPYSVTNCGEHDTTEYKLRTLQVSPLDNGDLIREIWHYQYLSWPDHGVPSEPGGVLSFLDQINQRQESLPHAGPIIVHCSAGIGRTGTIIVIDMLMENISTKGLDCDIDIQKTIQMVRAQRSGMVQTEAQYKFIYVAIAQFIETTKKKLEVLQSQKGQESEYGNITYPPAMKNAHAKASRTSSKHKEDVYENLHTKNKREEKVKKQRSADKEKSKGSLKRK

SMILES: Cc1cc(S(=O)(=O)O)c(S(=O)(=O)O)cc1N1N=C(C(=O)O)CC1=O
- IC50 [1]: > 100 µM
- IC50 [2]: > 100 µM
- inhibition [3]: 91%
- inhibition [4]: inactive
- inhibition [5]: inactive
- IC50 [6]: 14 µM
